± gives the expanded uncertainty stated by the source.
Assays:
[1] = Crystal
[2] = Molar enthalpy of transition or fusion; settings: Crystal; DSC

Normal melting temperature [1] [°C] | Normal melting temperature ([1]; DTA) [°C] | Molar enthalpy of transition or fusion [2] [kcal/mol] | Compound
-9.8 ± 0.6 | -9.47 ± 0.39 | 6.54 ± 0.146 | CCCCCCCC(C)=O [2-nonanone]
-14.5 ± 0.6 |  | 5.66 ± 0.129 | CCCCCCCCO [octan-1-ol]
6.4 ± 0.6 |  | 7.5 ± 0.165 | CCCCCCCCCCO [decan-1-ol]
23.5 ± 0.6 |  | 9.02 ± 0.194 | CCCCCCCCCCCCO [dodecan-1-ol]
27.7 ± 0.6 | 28.60 ± 0.39 | 10.5 ± 0.222 | CCCCCCCCCCCC(C)=O [2-tridecanone]
21 ± 0.6 | 21.12 ± 0.39 | 9.44 ± 0.201 | CCCCCCCCCCC(C)=O [2-dodecanone]
-36 ± 0.6 | -36.6 ± 0.4 | 4.56 ± 0.108 | CCCCCC(C)=O [2-heptanone]
11.7 ± 0.6 | 12.11 ± 0.39 |  | CCCCCCCCCC(C)=O [2-undecanone]

Source: the NIST ThermoML archive (doi:10.1021/je100725a)
